Legend:
[1] = target: T1, SHP-1 (Homo sapiens, UniProt P29350); assay: SHP-1 inhibition, OMFP substrate assay; format: biochemical; conditions: for IC50: OMFP substrate, means ± SD of three replications, PC = Na3VO4
T1 construct: made in house
Procedure: (§1) In addition to potency improvements, we investigated the selectivity of three representative compounds, namely, 1, 46 and 49 against other PTPs (TCPTP, SHP-1, SHP-2, LAR). […] Besides TCPTP, we tested the inhibitory activity of these compounds on other three homogenous enzymes SHP-1, SHP-2, and LAR [25].
(§2) A colorimetric assay to measure inhibition against PTP1B and TCPTP was performed in 96-well plates. Briefly, the tested compounds were solubilized in DMSO and serially diluted into concentrations for the inhibitory test. The assays were carried out in a final volume of 100 μL containing 50 mmol/L MOPS, pH 6.5, 2 mmol/L pNPP, 30 nmol/L GST-PTP1B or GST-TCPTP,and 2% DMSO, and the catalysis of pNPP was continuously monitored on a SpectraMax 340 microplate reader at 405 nm for 3 min at 30 °C. The IC50 value was calculated from the nonlinear curve fitting of the percent inhibition [inhibition (%)] vs. the inhibitor concentration using the Equation (1): Inhibition (%) = 100/[1 + (IC50/[I]k)] (1) where k is the Hill coefficient. To study the inhibition on the other PTPase family members, SHP1, SHP2 and LAR were prepared and assays were performed according to procedures described previously. Briefly, the enzymatic activity of the SHP1, SHP2 and LARwere determined at 30 °C by monitoring the dephosphorylation of substrate 3-o-methylfluorescein phosphate (OMFP), product was then detected at a 485 nm excitation wavelength and 530 nm emission wavelength by the EnVision multilabe plate reader (Perkin-Elmer Life Sciences, Boston, MA, USA). The assays were carried out in a final volume of 50 μL containing 50 mmol/L MOPS, pH 6.8, 10 μmol/L OMFP, 20 nmol/L recombinant enzyme, 2 mmol/L dithiothreitol , 1 mmol/L EDTA, and 2% DMSO. The initial rate of the dephosphorylation was presented by the early linear region of the enzymatic reaction kinetic curve, the inhibitory activity of the compound was continuously monitored.

[2] = target: T2, PTP1B (GST-PTP1B) (Homo sapiens, UniProt P18031); assay: PTP1B inhibition, colorimetric pNPP assay; format: biochemical; conditions: pNPP substrate; for inhibition at 20 µg/mL: PTP1B, compound at 20 μg/mL
T2 sequence (P18031 1-435): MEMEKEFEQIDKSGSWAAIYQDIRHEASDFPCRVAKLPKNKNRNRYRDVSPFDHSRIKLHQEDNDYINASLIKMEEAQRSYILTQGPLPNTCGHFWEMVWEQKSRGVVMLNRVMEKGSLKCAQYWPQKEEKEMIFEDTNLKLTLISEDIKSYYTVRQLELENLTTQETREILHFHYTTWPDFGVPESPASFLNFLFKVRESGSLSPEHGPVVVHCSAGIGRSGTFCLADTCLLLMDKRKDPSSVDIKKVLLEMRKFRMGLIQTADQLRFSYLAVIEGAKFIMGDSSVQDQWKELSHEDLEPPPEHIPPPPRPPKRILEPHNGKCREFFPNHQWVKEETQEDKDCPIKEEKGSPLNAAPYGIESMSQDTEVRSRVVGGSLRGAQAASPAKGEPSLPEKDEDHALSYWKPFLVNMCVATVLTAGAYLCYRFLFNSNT

[3] = target: T3, SHP-2 (Homo sapiens, UniProt Q06124); assay: SHP-2 inhibition, OMFP substrate assay; format: biochemical; conditions: for IC50: OMFP substrate, means ± SD of three replications, PC = Na3VO4
T3 construct: made in house
T3 sequence (Q06124 1-593): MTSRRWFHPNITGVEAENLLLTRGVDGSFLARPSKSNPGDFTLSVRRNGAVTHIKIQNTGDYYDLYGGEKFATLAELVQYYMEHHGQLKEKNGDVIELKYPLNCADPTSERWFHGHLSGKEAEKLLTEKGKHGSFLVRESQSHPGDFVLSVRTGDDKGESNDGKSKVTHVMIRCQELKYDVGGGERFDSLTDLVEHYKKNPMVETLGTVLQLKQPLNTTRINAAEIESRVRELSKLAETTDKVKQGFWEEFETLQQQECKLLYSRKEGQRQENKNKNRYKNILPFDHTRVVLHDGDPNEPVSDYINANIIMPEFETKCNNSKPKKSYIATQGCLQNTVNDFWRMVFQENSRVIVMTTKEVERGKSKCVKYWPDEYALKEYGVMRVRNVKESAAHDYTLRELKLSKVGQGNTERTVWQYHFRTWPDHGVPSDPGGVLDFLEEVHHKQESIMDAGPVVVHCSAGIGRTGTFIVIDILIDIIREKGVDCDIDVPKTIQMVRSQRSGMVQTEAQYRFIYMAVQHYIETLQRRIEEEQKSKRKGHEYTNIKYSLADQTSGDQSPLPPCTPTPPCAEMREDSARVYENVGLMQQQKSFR
Procedure: as §1, §2

[4] = target: T4, LAR (Homo sapiens, UniProt P10586); assay: LAR inhibition, OMFP substrate assay; format: biochemical; conditions: NA = no activity (inhibitory ratio lower than 50% at the dose of 20 μg/mL), PC = Na3VO4
T4 sequence (P10586 1352-1607 limits assumed): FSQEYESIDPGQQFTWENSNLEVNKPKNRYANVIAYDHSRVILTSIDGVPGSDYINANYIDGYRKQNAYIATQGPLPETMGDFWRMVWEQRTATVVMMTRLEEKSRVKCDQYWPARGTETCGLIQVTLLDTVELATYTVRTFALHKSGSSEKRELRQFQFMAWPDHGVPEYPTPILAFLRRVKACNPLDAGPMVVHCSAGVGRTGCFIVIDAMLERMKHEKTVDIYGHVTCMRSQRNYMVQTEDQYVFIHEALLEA
Procedure: as §1
as §2, with “To study the inhibition on the other PTPase family members, SHP1, SHP2 and LAR were prepared and assays were performed according to procedures described previously.” left out, “The assays were carried out in a final volume of 50 μL containing 50 mmol/L MOPS, pH 6.8, 10 μmol/L OMFP, 20 nmol/L recombinant enzyme, 2 mmol/L dithiothreitol , 1 mmol/L EDTA, and 2% DMSO. The initial rate of the dephosphorylation was presented by the early linear region of the enzymatic reaction kinetic curve, the inhibitory activity of the compound was continuously monitored.” left out

[5] = target: T5, TCPTP (GST-TCPTP) (Homo sapiens, UniProt P17706); assay: TCPTP inhibition, colorimetric pNPP assay; format: biochemical; conditions: for IC50: pNPP substrate, means ± SD of three replications, PC = oleanolic acid; for TCPTP/PTP1B (selectivity, fold): ratio of IC50 TCPTP to IC50 PTP1B
T5 sequence (P17706 1-415): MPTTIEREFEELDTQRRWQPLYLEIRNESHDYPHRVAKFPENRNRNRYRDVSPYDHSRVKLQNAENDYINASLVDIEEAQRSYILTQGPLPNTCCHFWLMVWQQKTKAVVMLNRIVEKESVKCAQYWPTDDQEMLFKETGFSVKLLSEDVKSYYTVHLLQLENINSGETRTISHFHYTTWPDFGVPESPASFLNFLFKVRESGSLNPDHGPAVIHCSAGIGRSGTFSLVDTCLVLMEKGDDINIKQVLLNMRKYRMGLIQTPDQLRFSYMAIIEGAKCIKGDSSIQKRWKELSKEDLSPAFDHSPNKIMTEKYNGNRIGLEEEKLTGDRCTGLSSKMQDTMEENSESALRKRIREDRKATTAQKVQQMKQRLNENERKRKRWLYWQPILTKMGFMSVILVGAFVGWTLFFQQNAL
Procedure: as §1, §2

[6] = means ± SD of three replications, OA/PC = oleanolic acid positive control

T1 sequence (P29350 whole entry): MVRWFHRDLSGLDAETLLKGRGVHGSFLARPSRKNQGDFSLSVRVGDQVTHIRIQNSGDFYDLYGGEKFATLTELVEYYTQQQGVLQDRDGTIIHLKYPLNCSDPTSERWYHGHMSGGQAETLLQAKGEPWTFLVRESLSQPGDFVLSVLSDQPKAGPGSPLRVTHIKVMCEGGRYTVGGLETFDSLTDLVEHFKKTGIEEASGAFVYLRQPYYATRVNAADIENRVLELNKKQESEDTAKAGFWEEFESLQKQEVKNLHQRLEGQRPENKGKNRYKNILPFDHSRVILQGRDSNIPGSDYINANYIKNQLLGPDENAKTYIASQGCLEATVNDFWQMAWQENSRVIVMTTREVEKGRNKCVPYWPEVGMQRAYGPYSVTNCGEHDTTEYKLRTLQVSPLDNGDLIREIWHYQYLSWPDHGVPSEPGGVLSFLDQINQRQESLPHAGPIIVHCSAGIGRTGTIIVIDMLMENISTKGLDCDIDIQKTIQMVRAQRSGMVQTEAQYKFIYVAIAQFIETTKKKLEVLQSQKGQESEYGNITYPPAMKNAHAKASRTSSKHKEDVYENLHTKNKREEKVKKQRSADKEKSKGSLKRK

O=C(O)CCCCCNC(=O)c1ccc(C2Nc3cccc4cccc(c34)N2)nc1 [Compound 49, 6-[6-(2,3-Dihydro-1H-perimidin-2-yl)nicotinamido]hexanoic acid]
IC50 [1]: 2.72 ± 0.3 µM
selectivity for PTP1B over SHP-1 ([1]; from IC50 values): about 4 fold
melting point: 86.7 to 88.4 °C
inhibition at 20 µg/mL [2]: 99.4%
IC50 [2, 6]: 0.59 ± 0.05 µM
IC50 PTP1B [2, 6]: submicromolar
IC50 [3]: 2.5 ± 0.22 µM
selectivity for PTP1B over SHP-2 ([3]; from IC50 values): about 4 fold
IC50 LAR [4]: no visible activities
IC50 [5]: 1.24 ± 0.12 µM
TCPTP/PTP1B (selectivity, fold) [5]: 2.10

O=C(O)c1ccc(C2Nc3cccc4cccc(c34)N2)cc1 [Compound 1, 4-(2,3-dihydro-1H-perimidin-2-yl)benzoic acid]
IC50 [1]: 23.3 ± 2.03 µM
inhibition at 20 µg/mL [2]: 98.6%
IC50 [2, 6]: 8.34 ± 1.07 µM
IC50 [3]: 31.2 ± 7.72 µM
IC50 [5]: 4.83 ± 0.9 µM
TCPTP/PTP1B (selectivity, fold) [5]: 0.58
